Legend:
[1] = system: human iPS cell-derived myocardial cells; assay: Heart rate of myocardial cells by MEA extracellular potential, serum-free culture medium without additive; assay type: cell-based; conditions: no pretreatment
Procedure: (§1) Reference Example 1: Method and results of evaluating effect on heart rate in a case where muscarinic receptor agonist (carbachol) is added to serum-free culture medium Human iPS cell-derived myocardial cells (iCell myocardial cells 2.0, manufactured by FUJIFILM Cellular Dynamics, Inc.) in a frozen state were thawed, suspended in a thawing culture medium (iCell myocardial cell thawing culture medium, manufactured by FUJIFILM Cellular Dynamics, Inc.), and then seeded at a cell density of 50,000 cells per well on a MEA plate (Cyto View MEA 48, manufactured by Axion BioSystems, Inc.). The seeding density of myocardial cells in the vicinity of the electrode was 2,736 cells/mm^2. […]
(§2) On the day of measurement, the MEA plate on which the human iPS cell-derived myocardial cells were cultured was placed in an MEA system (Maestro Pro, manufactured by Axion BioSystems, Inc.), and the extracellular potential was measured after 20 minutes (medium control, carbachol concentration: 0 μmol/L). Subsequently, 0.01 μmol/L of carbachol (manufactured by Tokyo Chemical Industry Co., Ltd.) was added to the MEA plate, and then the extracellular potential was measured after 20 minutes from the addition. Similarly, carbachol was added to give concentrations of 0.1 μmol/L, 1 μmol/L, and 10 μmol/L, and then the extracellular potential was measured at each concentration after 20 minutes from the addition. […]

[2] = system: human iPS cell-derived myocardial cells; assay: Heart rate of myocardial cells by MEA, maintenance culture medium containing serum; assay type: cell-based
From the text: as §1, with “Comparative” for “Reference”, “decrease in” for “effect on”, “by” for “in a case where”, “using maintenance” for “is added to serum-free”, “2,798” for “2,736”
as §2, with “concentration.” for “concentration after 20 minutes from the addition.”

SMILES	increase in heart rate ([1]; atropine 0.01-1 μmol/L)	increase in heart rate ([2]; atropine 0.01-1 μmol/L)	decrease in heart rate ([1]; carbachol 0.01-10 μmol/L, 20 minutes after each addition, vs medium control)	decrease in heart rate ([2]; carbachol 0.01-10 μmol/L)
CN1[C@@H]2CC[C@H]1C[C@@H](OC(=O)C(CO)c1ccccc1)C2 (stereo partly shown) [atropine]	No clear increase in heart rate	No clear increase in heart rate	–	–
C[N+](C)(C)CCOC(N)=O [carbachol]	–	–	up to 15%	No clear decrease in heart rate

From patent US20250354979A1, “DRUG EVALUATION METHOD, REAGENT, AND KIT” (FUJIFILM Corporation, priority 2023, published 2025)
